{"source": "patent US20150079071A1", "about": "“NON-CATALYTIC DOMAIN TARGETS IN MATRIX METALLOPROTEASE PROTEINS FOR CANCER THERAPIES” (THE REGENTS OF THE UNIVERSITY OF CALIFORNIA, priority 2012, published 2015)", "format_in_all_cases": "cell-based, mouse", "key": {"[1]": {"test_system": "SCp2 cells", "experiment": "Invasion assay in Boyden chambers", "conditions": "for invasion of FL and EA-SCp2 cells: SCp2 overexpressing MMP3 constructs containing the hemopexin domain; for invasion of dPEX-SCp2 or control cells: SCp2 with hemopexin-deleted MMP3 or control vector", "description": "Cell culture inserts (8 μm, 24-well format; BD Biosciences) were evenly coated with 20 μL of diluted (1:5 in DMEM/F-12 medium) Matrigel (BD Biosciences). Cells (1×10^5) in 200 μL of DMEM/F-12 medium or different CM (as indicated in each experiment) were added to the upper compartment of the chamber. The lower compartment of the chamber was filled with 300 μL of medium containing 10% FBS as a chemoattractant. After 48 h of incubation at 37° C., the top side of the insert was cleared from noninvasive cells with a cotton swab and washed with serum-free DMEM/F-12. The remaining (invasive) cells at the lower surface of the filter were fixed and stained with a solution of Coomassie Blue 0.125% in methanol:acetic acid:H2O (45%:10%:45% [v/v/v]) for 15 min. Invasive cells were scored by counting 10×20 magnification fields per filter with a Zeiss Imager Z1 microscope using a 20× objective. Mouse embryonic fibroblast NIH/3T3 cells were routinely included as a positive control. Results are expressed as mean±SD from three independent experiments."}, "[2]": {"test_system": "primary mammary organoids", "experiment": "Branching morphogenesis assay of primary mammary organoids in 3D Col-1 gels", "description": "Primary organoids or clustered EpH4 cells were embedded in 3D Col-1 gels as previously published (Simian et al. 2001; Mori et al. 2013). In brief, acid-solubilized Col-1 solution was mixed gently on ice with 1 vol of 10×DMEM/F-12 (pH adjusted to 7.4 with 0.1 M NaOH), and the concentration was adjusted to 3 mg/mL with DMEM/F-12. A basal layer of 80 μL of Col-1 was poured into each well of an eight-well chambered coverglass (155409, Thermo Scientific) and allowed to gel for 5 min at 37° C. A second layer of 200 μL of Col-1 containing 150 organoids or EpH4 clusters was added to each well and placed immediately at 37° C. After gelation, 400 μL of chemically defined medium (DMEM/F-12 containing 1% insulin/transferrin/selenium, 1% penicilin/streptomycin) with 9 nM TGFα (Sigma) or 9 nM bFGF (Sigma) was added to each well (unless stated otherwise) and replaced every other day.\nAfter 3 d of culture, gels were fixed with 4% formalin for 30 min and stained with phalloidin and DAPI for 1 h. Structures were imaged with an upright Zeiss LSM710 using a 0.8 NA 20× air objective. […] The number of extending processes and their average length were determined using the Imaris program (Bitplane). […] Fifty structures were counted per condition, and the experiments were executed at least three times."}, "[3]": {"test_system": "primary mammary organoids and EpH4 cells", "experiment": "Branching morphogenesis (invasion/branching) assay in collagen-1 gels", "conditions": "9 nM FGF2, inhibitors 40 μM; for invasion/branching in sparse CL-1 gels: sparse CL-1 1 mg/ml", "description": "Single cells were removed by centrifugation and the clusters were then washed three times with DMEM/F12. Cell clusters and primary organoids were embedded in collagen-1 gels. Briefly, acid-extracted type I collagen (Koken, Tokyo, Japan) was mixed gently on ice (8 vol) with 1 vol of 10×DMEM/F12, then pH is adjusted to 7.4 with 0.1N NaOH. Collagen solution was added into each well of a 48-well plate, which was then incubated at 37° C. to allow gelation. EpH4 cell clusters or primary organoids were suspended in collagen at 3 mg/ml or 1 mg/ml, poured onto the basal collagen layer and placed at 37° C. for gelation. After gelation of the collagen, growth medium containing 9 nM FGF2 was added to the wells. Branching morphogenesis was assessed using a Nikon Diaphot 300 microscope and clusters were scored as positive when displaying three or more branches of length at least half the diameter of the central cell cluster."}, "[4]": {"test_system": "Mmp14 and Itgb1", "experiment": "Immunoblot of Mmp14 and Itgb1 levels in EpH4 cells", "description": "Samples were lysed using modified RIPA buffer (50 mM HEPES pH 7.4, 150 mM NaCl, 10% glycerol, 1% Triton X-100, 10 mM sodium pyrophosphate containing 1.5 mM MgCl2, 1 mM EGTA, 1% sodium deoxycholate, 0.25 mM Na3VO4, 100 mM NaF and proteinase inhibitor cocktail (EMD Millipore, Billerica, USA)). Protein concentration was determined using the BCA Protein Assay kit (Thermo Scientific, Waltham, USA), following the manufacturer's instructions. Protein samples (10 μg) were mixed with Laemmeli sample buffer and heated at 95° C. for 5 minutes. Samples were loaded into a pre-cast 4-20% tris-glycine polyacrylamide gel (Invitrogen) using the NOVEX system (Invitrogen). Resolved proteins were transferred to nitrocellulose membrane (Whatman, Maidstone, UK) followed by blocking in PBS, 0.05% Tween-20 with 5% w/v non-fat dry milk for 1 hour at room temperature (RT). Membranes were incubated overnight at 4° C. in 5% BSA, 0.1% Tween-20 in PBS containing antibodies that recognize either phosphorylated Erk1/2, total Erk1/2 (Cell Signaling). Anti-Mmp14 (Abcam, Cambridge, USA), anti-Itgb1 (Santa Cruz Biotechnology, Santa Cruz, USA), anti-Itgb1 p788/789 (Abcam), anti-LAM A/C (Santa Cruz Biotechnology), anti-Actin (Abcam), anti-FLAG (Sigma) and rabbit IgG (Sigma) antibodies were used for immunoblotting. Primary antibodies were detected with HRP conjugated anti-IgG (Thermo) and the Pierce SuperSignal detection kit. Chemiluminescence ignal was captured with a FluorChem 8900 analysis system (Alpha Innotech, San Leandro, USA)."}, "[5]": {"test_system": "Erk", "experiment": "Immunoblot of phospho-Erk / total Erk (MAPK activity)", "conditions": "EpH4 cells in CL-1 gels", "protocol": "Samples were lysed using modified RIPA buffer (50 mM HEPES pH 7.4, 150 mM NaCl, 10% glycerol, 1% Triton X-100, 10 mM sodium pyrophosphate containing 1.5 mM MgCl2, 1 mM EGTA, 1% sodium deoxycholate, 0.25 mM Na3VO4, 100 mM NaF and proteinase inhibitor cocktail (EMD Millipore, Billerica, USA)). Protein concentration was determined using the BCA Protein Assay kit (Thermo Scientific, Waltham, USA), following the manufacturer's instructions. Protein samples (10 μg) were mixed with Laemmeli sample buffer and heated at 95° C. for 5 minutes. Samples were loaded into a pre-cast 4-20% tris-glycine polyacrylamide gel (Invitrogen) using the NOVEX system (Invitrogen). Resolved proteins were transferred to nitrocellulose membrane (Whatman, Maidstone, UK) followed by blocking in PBS, 0.05% Tween-20 with 5% w/v non-fat dry milk for 1 hour at room temperature (RT). Membranes were incubated overnight at 4° C. in 5% BSA, 0.1% Tween-20 in PBS containing antibodies that recognize either phosphorylated Erk1/2, total Erk1/2 (Cell Signaling). […] Primary antibodies were detected with HRP conjugated anti-IgG (Thermo) and the Pierce SuperSignal detection kit. Chemiluminescence ignal was captured with a FluorChem 8900 analysis system (Alpha Innotech, San Leandro, USA)."}}, "note": "Like-named read-outs stand apart in the source and are kept apart here."}
{"compound": "CCc1cc(-c2n[nH]c(C)c2-c2ccc3c(c2)OCCO3)c(O)cc1O", "note": "[CCT018159]", "values": [{"measurement": "invasion of FL and EA-SCp2 cells", "setting": "[1]", "value": "reduced invasion"}, {"measurement": "invasion of dPEX-SCp2 or control cells", "setting": "[1]", "value": "no significant effect"}]}
{"compound": "recombinant HSP90β: recombinant HSP90β protein purchased from Calbiochem/EMD Millipore", "values": [{"measurement": "invasion and branching of mammary organoids", "setting": "[2]; 3 mg/mL Col-1, 3 d, TGFα", "value": "most exuberant branched structures"}, {"measurement": "spatial network per organoid", "setting": "[2]; organoids overexpressing FL MMP3, 3 mg/mL Col-1, 3 d", "value": "longest spatial network observed so far"}, {"measurement": "invasion of FL and EA-SCp2 cells", "setting": "[1]", "value": "enhanced invasion significantly"}, {"measurement": "invasion of dPEX-SCp2 or control cells", "setting": "[1]", "value": "did not raise the invasive potential"}]}
{"compound": "COc1cccc(-c2cc(=O)c3ccccc3o2)c1N", "note": "[PD98059]", "values": [{"measurement": "invasion/branching in sparse CL-1 gels", "setting": "[3]", "value": "reduced invasion/branching"}, {"measurement": "Itgb1 level", "setting": "[4]", "value": "reduced"}, {"measurement": "Mmp14 level", "setting": "[4]", "value": "reduced"}, {"measurement": "Itgb1 level", "setting": "[4]; listed as PD95089", "value": "reduced expression"}, {"measurement": "Mmp14 level", "setting": "[4]; listed as PD95089", "value": "reduced expression"}]}
{"compound": "CNC(=O)[C@H](Cc1c[nH]c2ccccc12)NC(=O)[C@@H](CC(=O)NO)CC(C)C", "note": "[GM6001]", "values": [{"measurement": "MAPK activation (pErk/total Erk)", "setting": "[5]", "value": "did not change"}, {"measurement": "invasion/branching in dense CL-1 gels", "setting": "[3]; dense CL-1 3 mg/ml", "value": "completely abrogated"}, {"measurement": "invasion/branching in sparse CL-1 gels", "setting": "[3]", "value": "still invaded"}]}
